Measurements: patent US20260207600A1, “METHODS OF TREATMENT WITH MYOSIN MODULATOR” (MYOKARDIA, INC., priority 2019, published 2026)

Test system: subjects with symptomatic non-obstructive hypertrophic cardiomyopathy (nHCM)
Test: […]-HCM Phase 2 randomized, double-blind, placebo-controlled, concentration-guided study
Type: in vivo, human
Parameters: Overall KCCQ Summary Score / Clinical KCCQ Summary Score / Change in Overall KCCQ Summary Score, Mean / Change in Clinical KCCQ Summary Score, Mean / Change from Baseline in Overall KCCQ Summary Score, Mean / Change from Baseline in Clinical KCCQ Summary Score, Mean: scale not given here
Settings: for Composite functional endpoint Type 1, % / Composite functional endpoint Type 2, % / Met composite functional endpoint, either type, %: Combined Subgroup
Text: This is a Phase 2 trial designed to assess the safety and tolerability of a range of exposures over 16 weeks of treatment in subjects with symptomatic, non-obstructive HCM. All study subjects were required to be diagnosed with non-obstructive HCM, with left ventricular wall thickness either ≥15 mm or ≥13 mm with a family history of HCM, LVEF≥55%, NYHA classifications of Class II or III, and NT-proBNP levels of greater than 300 pg/mL at rest. Baseline characteristics, such as age, weight, gender, pathogenic mutation status, background beta blocker use, NYHA classification and exercise capacity were approximately evenly distributed between active and placebo arms.
This double-blind study enrolled 59 individuals with nHCM (Left ventricular outflow tract gradient<30 mmHg; resting or provoked), NYHA Class II or III, and LVEF≥55%. Subjects were randomized 1:1:1 to one of two target plasma drug concentrations (Group 1: ~200 ng/mL and Group 2: ~ 500 ng/ml) or placebo for 16 weeks, followed by an 8-week washout. […] Predefined criteria, including LVEF (LVEF≤45%), guided study drug discontinuation if indicated. Cardiopulmonary exercise testing was performed at baseline and Week 16 to assess the impact on exercise capacity.
Dose adjustments will be based on PK parameters. Assessments include safety, standardized cardiopulmonary exercise testing (CPET) with measurement of peak oxygen consumption, echocardiography to evaluate left ventricular ejection fraction (LVEF) and parameters of diastolic function, symptoms, quality of life, daily step counts, and NT-proBNP at rest and after exercise. In addition, subjects may consent to hypertrophic cardiomyopathy genotyping and pharmacogenetic sampling.
Cardiac Troponin I levels were evaluated on plasma and serum samples of subjects at baseline and at various time points in the trial (Abbott Architect Stat Troponin-I assay (Ref. 2K41)). Cardiac Troponin T levels were evaluated on plasma and serum samples of subjects at baseline and at various time points in the trial (Roche Elecsys Troponin T hs assay) (Ref. 08469873190) performed on a cobas e 801 analyzer). NT-proBNP levels were evaluated on plasma samples using the Roche Elecsys proBNPII assay (Ref. 07027664190) on a cobas e 801 analyzer.
5 mg QD was used as the starting dose for the study. All subjects in the active treatment groups started on 5 mg QD. […] PK modeling was used to guide blinded dose adjustment at the Week 6 visit, based on the plasma concentrations collected at Week 4. Subjects in the placebo group underwent the same assessments in order to preserve the blind. […] Subjects were instructed to take the drug under fasting conditions, at approximately the same time each day, and with 8 ounces of water.
To achieve the target concentration, if a subject's Week 4 concentration was >450 ng/ml, the subject's dose was decreased to 2.5 mg QD; if Week 4 concentration was 110-450 ng/mL, the dose was maintained at 5 mg QD; and if Week 4 concentration was <110 ng/mL, the dose was increased to 10 mg QD.
Subjects were monitored for adverse events (AE), including high blood plasma concentration, systolic dysfunction, QT prolongation, and LVEF decrease. If any of the following thresholds were hit PK 1000 or more, QTcF 500, or LVEF 45%, the subjects were discontinued on drug. Specifically, high blood plasma concentration was defined as blood plasma concentration greater than or equal to 1000 ng/ml; QT prolongation was defined as QTcF greater than or equal to 500 ms; and LVEF shortening was defined as LVEF less than or equal to 45% (including serious adverse event (SAE) for LVEF less than or equal to 30%).
Efficacy and pharmacodynamics assessments were also made. Resting transthoracic echocardiography measurements were taken at Weeks 4, 8, 12 and 16. Ejection fraction (2-D) and LV frantional shortening were analyzed along with other echocardiographic at baseline measures including measure of diastolic function. […]

[1] = Elevated Troponin subgroup (N = 13), Mean
[2] = Elevated Troponin subgroup, Mean Difference vs Placebo
[3] = ITT, Group 1 ~200 ng/mL (n = 19)
[4] = ITT, Group 2 ~500 ng/mL (n = 21)
[5] = ITT, Week 16, pooled-mavacamten group
[6] = Other subgroup, Mean Difference vs Placebo
[7] = Subgroup with Elevated E/e′ at Baseline, Difference mavacamten vs placebo
[8] = Subgroup with Elevated E/e′ at Baseline, Pooled (n = 14)
[9] = Subgroup with Elevated cTnI at Baseline, Difference mavacamten vs placebo
[10] = Subgroup with Elevated cTnI at Baseline, Pooled (n = 13)
[11] = week 16, pooled-mavacamten group

## CC(C)n1c(=O)cc(N[C@@H](C)c2ccccc2)[nH]c1=O [mavacamten, (S)-3-Isopropyl-6-((1-phenylethyl)amino)pyrimidine-2, 4(1H,3H)-dione]
5 participants among the 40 receiving active treatment, weeks 11-12
  participants with a decrease in LVEF to ≤45%: 12.5%
Group 1 ~200 ng/mL (n = 9)
  Composite functional endpoint Type 1, %: (11.1) %
  Composite functional endpoint Type 2, %: (22.2) %
  Met composite functional endpoint, either type, %: (33.3) %
Group 2 ~500 ng/mL (n = 12)
  Composite functional endpoint Type 1, %: (8.3) %
  Composite functional endpoint Type 2, %: (25.0) %
  Met composite functional endpoint, either type, %: (33.3) %
Pooled (n = 21)
  Composite functional endpoint Type 1, %: (9.5) %
  Composite functional endpoint Type 2, %: (23.8) %
  Met composite functional endpoint, either type, %: (33.3) %
[1]
  Average Daily Accelerometry Unit: 136328
  Clinical KCCQ Summary Score: 6.891
  NYHA Class: −0.462
  Overall KCCQ Summary Score: 6.410
  Peak VO2: 1.475 mL/min/kg
  Serum NT-proBNP: -950.462 ng/L
  Serum Troponin I: -0.123 ng/mL
[2]
  Average Daily Accelerometry Unit: 350347
  Clinical KCCQ Summary Score: 8.766
  NYHA Class: −0.262
  Overall KCCQ Summary Score: 1.896
  Peak VO2: 2.695 mL/min/kg
  Serum NT-proBNP: -784.062 ng/L
  Serum Troponin I: -0.083 ng/mL
ITT, Group 1
  participants achieving the composite functional endpoint: 16%
[3]
  Change in Clinical KCCQ Summary Score, Mean: 0.11
  Change in LVEDV, Mean: 1.15 mL
  Change in LVEF, Mean: −2.30%
  Change in Lateral e′, Mean: 0.34 cm/s
  Change in NYHA Class, Mean: −0.6
  Change in Overall KCCQ Summary Score, Mean: 0.35
  Change in Peak VO2, Mean: 0.36 mL/min/kg
  Change in Septal e′, Mean: 0.64 cm/s
  NT-proBNP, Geometric mean, percent change: −47.1%
  cTnI, Geometric mean, percent change: −23.4%
ITT, Group 2
  participants achieving the composite functional endpoint: 29%
[4]
  Change in Clinical KCCQ Summary Score, Mean: 5.66
  Change in LVEDV, Mean: 6.50 mL
  Change in LVEF, Mean: −5.61%
  Change in Lateral e′, Mean: 1.46 cm/s
  Change in NYHA Class, Mean: −0.3
  Change in Overall KCCQ Summary Score, Mean: 6.24
  Change in Peak VO2, Mean: 0.12 mL/min/kg
  Change in Septal e′, Mean: 1.60 cm/s
  NT-proBNP, Geometric mean, percent change: −57.9%
  cTnI, Geometric mean, percent change: −41.0%
ITT, Pooled (n = 40)
  Change in Clinical KCCQ Summary Score, Mean: 3.37
  Change in LVEDV, Mean: 4.04 mL
  Change in LVEF, Mean: −4.09%
  Change in Lateral e′, Mean: 0.94 cm/s
  Change in NYHA Class, Mean: −0.4
  Change in Overall KCCQ Summary Score, Mean: 3.82
  Change in Peak VO2, Mean: 0.22 mL/min/kg
  Change in Septal e′, Mean: 1.17 cm/s
  NT-proBNP, Geometric mean, percent change: −53.2%
  cTnI, Geometric mean, percent change: −34.0%
[5]
  cTnI geometric mean difference: -0.008 ng/mL
  cTnI geometric mean, decrease: 34%
Other subgroup (N = 27), Mean
  Average Daily Accelerometry Unit: 82413
  Clinical KCCQ Summary Score: 1.195
  NYHA Class: −0.417
  Overall KCCQ Summary Score: 2.210
  Peak VO2: -0.530 mL/min/kg
  Serum NT-proBNP: -280.667 ng/L
  Serum Troponin I: -0.003 ng/mL
[6]
  Average Daily Accelerometry Unit: 293157
  Clinical KCCQ Summary Score: −5.964
  NYHA Class: 0.122
  Overall KCCQ Summary Score: −4.495
  Peak VO2: -1.807 mL/min/kg
  Serum NT-proBNP: -178.513 ng/L
  Serum Troponin I: -0.004 ng/mL
[7]
  Change from Baseline in Clinical KCCQ Summary Score, Mean: 4.1
  Change from Baseline in LVEDVi, Mean: 3.9 mL/m^2
  Change from Baseline in NT-proBNP, Mean: -355 ng/L
  Change from Baseline in NYHA Class, Mean: 0.0
  Change from Baseline in Overall KCCQ Summary Score, Mean: 0.4
  Change from Baseline in Peak VO2, Mean: 1.9 mL/min/kg
  Change from Baseline in cTnI, Mean: -0.07 ng/mL
[8]
  Change from Baseline in Clinical KCCQ Summary Score, Mean: 4.6
  Change from Baseline in LVEDVi, Mean: 2.8 mL/m^2
  Change from Baseline in NT-proBNP, Mean: -656 ng/L
  Change from Baseline in NYHA Class, Mean: −0.4
  Change from Baseline in Overall KCCQ Summary Score, Mean: 4.7
  Change from Baseline in Peak VO2, Mean: 1.2 mL/min/kg
  Change from Baseline in cTnI, Mean: -0.09 ng/mL
[9]
  Change from Baseline in Clinical KCCQ Summary Score, Mean: 8.8
  Change from Baseline in LVEDVi, Mean: 0.042 mL/m^2
  Change from Baseline in NT-proBNP, Mean: -784 ng/L
  Change from Baseline in NYHA Class, Mean: −0.3
  Change from Baseline in Overall KCCQ Summary Score, Mean: 1.9
  Change from Baseline in Peak VO2, Mean: 2.70 mL/min/kg
  Change from Baseline in cTnI, Mean: -0.083 ng/mL
[10]
  Change from Baseline in Clinical KCCQ Summary Score, Mean: 6.9
  Change from Baseline in LVEDVi, Mean: 0.79 mL/m^2
  Change from Baseline in NT-proBNP, Mean: -951 ng/L
  Change from Baseline in NYHA Class, Mean: −0.5
  Change from Baseline in Overall KCCQ Summary Score, Mean: 6.4
  Change from Baseline in Peak VO2, Mean: 1.47 mL/min/kg
  Change from Baseline in cTnI, Mean: -0.12 ng/mL
Active drug arms
  subjects with transient ejection fraction reductions below the protocol-defined threshold of 45%: five
Combined subgroup (elevated cTnI or E/e′average >14 at baseline), mavacamten-treated
  participants achieving the composite functional endpoint: 33%
Elevated cTnI subgroup, week 16 (2 of 13)
  study subjects in whom cTnI levels remained unchanged: 15.4%
Elevated cTnI subgroup, week 16 vs baseline (11 of 13)
  study subjects in whom cTnI levels decreased: 84.6%
Subjects receiving mavacamten, placebo arm 21%
  Serious adverse events (SAEs), frequency in subjects: 10%
Treated individuals
  percentage change in cardiac troponin I from baseline: 30-80%
Week 16, Group 1
  NT-proBNP geometric mean, decrease: 47%
Week 16, Group 2
  NT-proBNP geometric mean, decrease: 58%
[11]
  NT-proBNP geometric mean difference: -435 pg/mL
  NT-proBNP geometric mean, decrease: 53%
